In patent US4659804A, “(Bis-1,7-S-acetamidomethyl-L-cysteine)salmon calcitonin” (Armour Pharmaceutical Company, priority 1984, dated 1987):

Tested on: serum calcium concentration
Experiment: Biological assay of calcitonin analogs in vivo: reduction of serum calcium concentration, 2×2 parallel line assay
Set-up: species or system Rats
Settings: standard salmon calcitonin used in the assay
Procedure: The biological potency of [1,7-Di-Cys(Acm)]salmon calcitonin was determined by comparing the reduction of serum calcium concentration which followed administration by graded doses of [1,7-Di-Cys(Acm)]SCT and synthetic salmon calcitonin standard. Rats were divided into four groups of seven animals, and each group was assigned at random to a dose of standard or test solution. Low and high doses were chosen from the linear portion of the dose-response curve. For the salmon calcitonin standard, the values were 0.7 and 2.1 mcg. peptide/100 g. body weight (BW). This dose approximates 3 and 9 MU/100 g. BW. Peptides were given by subcutaneous injection (0.2 ml/100 g. BW) and blood was withdrawn 1 hour later for serum calcium determination. Sera are processed and analyzed within two hours of collection. […]. Results were analyzed by a 2×2 parallel line assay [Gaddum, J. H., J. Pharm. Pharmacol., 6, 345 (1953)]. The standard salmon calcitonin used was independently determined to contain greater than 4,000 IU/mg. [1,7-Di-Cys(Acm)]SCT assayed at 4250 IU/mg.

For `CC(C)C[C@H](NC(=O)[C@H](CCCCN)NC(=O)CNC(=O)[C@H](CC(C)C)NC(=O)[C@@H](NC(=O)[C@@H]1CSSC[C@H](N)C(=O)N[C@@H](CO)C(=O)N[C@@H](CC(N)=O)C(=O)N[C@@H](CC(C)C)C(=O)N[C@@H](CO)C(=O)N[C@@H]([C@@H](C)O)C(=O)N1)C(C)C)C(=O)N[C@@H](CO)C(=O)N[C@@H](CCC(N)=O)C(=O)N[C@@H](CCC(=O)O)C(=O)N[C@@H](CC(C)C)C(=O)N[C@@H](Cc1c[nH]cn1)C(=O)N[C@@H](CCCCN)C(=O)N[C@@H](CC(C)C)C(=O)N[C@@H](CCC(N)=O)C(=O)N[C@H](C(=O)N[C@@H](Cc1ccc(O)cc1)C(=O)N1CCC[C@H]1C(=O)N[C@@H](CCCNC(=N)N)C(=O)N[C@H](C(=O)N[C@@H](CC(N)=O)C(=O)N[C@H](C(=O)NCC(=O)N[C@@H](CO)C(=O)NCC(=O)N[C@H](C(=O)N1CCC[C@H]1C(N)=O)[C@@H](C)O)[C@@H](C)O)[C@@H](C)O)[C@@H](C)O` [standard salmon calcitonin, Salmon calcitonin], the “biological potency of the standard, independently determined” value was “greater than 4,000 IU/mg”.
